Data taken from publication PMC5209733, “U24 from Roseolovirus interacts strongly with Nedd4 WW Domains” (Scientific Reports, 2017).
No end group written: not given here.

Tests used:
Format in all cases: binding
[1] = biological target: T1, rNedd4-WW3/4 (Rattus norvegicus, UniProt Q62940); experiment: Isothermal titration calorimetry, rNedd4-WW3/4; details: ITC, 25 °C, 10 mM sodium phosphate
T1 construct: GST fusion proteins of the second and third WW domains (WW2 and WW3/4) of rNedd4; GST (N, cleaved yes); made in house; host or cells: E. coli BL21(DE3)
Description: (§1) In order to compare the affinities between the U24 proteins and WW domains, the equilibrium dissociation constant (KD) for the interaction between each U24:Nedd4-WW domain pair tested above was determined using ITC. […] ITC experiments using these peptides as titrants were carried out on Nedd4-WW domains in 10 mM sodium phosphate, pH 7.4, at 25 °C. Control experiments in which the phosphate buffer was titrated into the protein solutions were also conducted to ensure the proteins were stable during the titration with peptide.
Importantly, this is the tightest affinity characterized to date between a U24 peptide ligand and WW domains.
In order to find out whether electrostatic interactions play a role in the binding of the three U24 peptides tested here to the Nedd4-WW domains, a set of ITC experiments were performed as a function of increasing salt concentration, 0 mM, 100 mM and 500 mM, in 10 mM sodium phosphate, pH 7.4, at 25 °C, for rNedd4-WW3/4 and hNedd4L-WW3*. Affinities and molar binding enthalpies (ΔH) for each U24:WW-domain pair as a function of salt concentration are plotted in Supplementary Fig. 2 and Fig. 3c and d, respectively.
(§2) Two cDNA clones containing human E3 ubiquitin-protein ligase Nedd4 (KIAA0093) and Nedd4-like protein (KIAA0439) were ordered from Kazusa DNA research institute (Chiba, Japan). The DNA fragment of the third WW domain of both proteins was amplified and inserted into BamHI and XhoI sites of pGEX-4T2 vector (GE Healthcare). The plasmids containing GST fusion proteins of the second and third WW domains (WW2 and WW3/4) of rNedd4 were kind gifts from Dr. Julie D. Forman-Kay (Hospital for Sick Children, Toronto). All plasmids were transformed into E. coli BL21(DE3) for expression at 25 °C for 16 hours using a final concentration of 400 μM IPTG. ^15N labelled protein was expressed in M9 media supplemented with ^15N labelled NH4Cl. The cells were harvested by centrifugation and stored in the −80 °C freezer until further use. The cell paste from approximately 600 mL culture was thawed on ice and resuspended in 10 mL PBS supplemented with 1% Triton X-100 (PBS/Triton buffer). Lysozyme, protease inhibitor and DNAse were added in the mixture. The mixture was incubated on ice for half an hour, then was lysed in an ice bath by sonication. After being centrifuged at 9,000 rpm for 1 hour, the supernatant was filtered using a 0.45 μm filter, and then applied to 2 mL of PBS washed Glutathione Sepharose 4B resin (GE Healthcare, GST 4B resin). The resin slurry with cell lysate was incubated for 2 hours at room temperature, and then washed with PBS/Triton buffer six times. The resin was collected by centrifugation at 600 × g for 5 minutes.
In order to obtain WW domains without the GST tag, the proteins were extracted and immobilized on GST 4B resin as described above. The resin was washed three times with PBS buffer, after the washing with PBS/Triton buffer. 3 mL PBS buffer and 150 units of thrombin (GE Healthcare) were added into the pelleted resin and the slurry was incubated at room temperature for 16 hours. The supernatant containing cleaved WW domains were collected on the second day by centrifugation. The residual thrombin in this fraction was removed using p-Aminobenzamidine-agarose (Sigma-Aldrich) and fresh GST 4B resin was used to remove the GST contaminants. The WW domain containing fraction was dialyzed at 4 °C against 2 L phosphate buffer (10 mM sodium phosphate, pH 7.4) using 2,000 MWCO dialysis membrane overnight for ITC or NMR experiments, or phosphate buffer with various salt concentrations (phosphate buffer with 100 mM or 500 mM NaCl) for ITC experiments.
After overnight dialysis, the cleaved Nedd4 WW domains in phosphate buffer, with different salt concentrations, were ready for use in ITC experiments. The dialysis buffer was kept as a sample-free buffer to measure the heats of dilution. […]

[2] = biological target: T2, rNedd4-WW2 (Rattus norvegicus, UniProt Q62940); experiment: Isothermal titration calorimetry, rNedd4-WW2; details: ITC, 25 °C, 10 mM sodium phosphate, pH 7.4; mean of three separate runs ± one SD
T2 construct: GST fusion proteins of the second and third WW domains (WW2 and WW3/4) of rNedd4; GST (N, cleaved yes); made in house; host or cells: E. coli BL21(DE3)
Description: as §1
(§3) Two cDNA clones containing human E3 ubiquitin-protein ligase Nedd4 (KIAA0093) and Nedd4-like protein (KIAA0439) were ordered from Kazusa DNA research institute (Chiba, Japan). The DNA fragment of the third WW domain of both proteins was amplified and inserted into BamHI and XhoI sites of pGEX-4T2 vector (GE Healthcare). […]
(§4) After overnight dialysis, the cleaved Nedd4 WW domains in phosphate buffer, with different salt concentrations, were ready for use in ITC experiments. […] The concentration of the sample was determined by the absorbance at 280 nm in 6 M Guanidine HCl on a UV-Vis spectrophotometer, and calculated using the theoretical extinction coefficient obtained from the ProtParam tool[51]. […] The peptide amounts were determined gravimetrically and calibrated according to the absorbance at 280 nm in 6 M Guanidine HCl. […]

[3] = biological target: T3, hNedd4-WW3* (Homo sapiens, UniProt P46934); experiment: Isothermal titration calorimetry, hNedd4-WW3*; details: ITC, 25 °C, 10 mM sodium phosphate, pH 7.4; mean of three separate runs ± one SD
T3 construct: The DNA fragment of the third WW domain of both proteins was amplified; GST (N, cleaved yes); made in house; host or cells: E. coli BL21(DE3)
Description: as §1, §3, §4

[4] = biological target: T4, hNedd4L-WW3* (Homo sapiens, UniProt Q96PU5); experiment: Isothermal titration calorimetry, hNedd4L-WW3*; details: ITC, 25 °C, 10 mM sodium phosphate
T4 construct: The DNA fragment of the third WW domain of both proteins was amplified; GST (N, cleaved yes); made in house; host or cells: E. coli BL21(DE3)
Description: as §1
In order to find out whether electrostatic interactions play a role in the binding of the three U24 peptides tested here to the Nedd4-WW domains, a set of ITC experiments were performed as a function of increasing salt concentration, 0 mM, 100 mM and 500 mM, in 10 mM sodium phosphate, pH 7.4, at 25 °C, for rNedd4-WW3/4 and hNedd4L-WW3*.
as §2
In order to obtain WW domains without the GST tag, the proteins were extracted and immobilized on GST 4B resin as described above. The resin was washed three times with PBS buffer, after the washing with PBS/Triton buffer. […]
After overnight dialysis, the cleaved Nedd4 WW domains in phosphate buffer, with different salt concentrations, were ready for use in ITC experiments. […]

[5] = pH 7.4, extra 100 mM NaCl, three runs
[6] = pH 7.4, extra 500 mM NaCl, three runs
[7] = pH 7.4, mean of three separate runs ± one SD

T4 sequence (Q96PU5 497-530 limits assumed): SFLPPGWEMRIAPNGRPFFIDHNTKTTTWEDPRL
T1 sequence (Q62940 459-492 limits assumed): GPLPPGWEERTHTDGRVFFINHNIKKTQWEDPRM
T3 sequence (P46934 840-873 limits assumed): as the sequence (Q96PU5 497-530 limits assumed) above, with S1G, P5K, M9V, I11H counted along it
T2 sequence (Q62940 402-435 limits assumed): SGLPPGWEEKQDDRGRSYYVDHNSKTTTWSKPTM

For CSCC[C@H](N)C(=O)N[C@@H](CC(=O)O)C(=O)N1CCC[C@H]1C(=O)N1CCC[C@H]1C(=O)N[C@@H](CCCNC(=N)N)C(=O)N[C@H](C(=O)N1CCC[C@H]1C(=O)N1CCC[C@H]1C(=O)N1CCC[C@H]1C(=O)N[C@@H](CO)C(=O)N[C@@H](Cc1ccc(O)cc1)C(=O)N[C@@H](CO)C(=O)N[C@@H](CCC(=O)O)C(=O)N[C@H](C(=O)N[C@@H](CC(C)C)C(=O)O)C(C)C)[C@@H](C)OP(=O)(O)O [pU24-6A], which Kd [1, 5] is on record?
Its Kd is 12 µM.

And the Kd [1, 6]?
Its Kd is 9.5 µM.

With CSCC[C@H](N)C(=O)N[C@@H](CC(=O)O)C(=O)N1CCC[C@H]1C(=O)N1CCC[C@H]1C(=O)N[C@@H](CCCNC(=N)N)C(=O)N[C@H](C(=O)N1CCC[C@H]1C(=O)N1CCC[C@H]1C(=O)N1CCC[C@H]1C(=O)N[C@@H](CO)C(=O)N[C@@H](Cc1ccc(O)cc1)C(=O)N[C@@H](CO)C(=O)N[C@@H](CCC(=O)O)C(=O)N[C@H](C(=O)N[C@@H](CC(C)C)C(=O)O)C(C)C)[C@@H](C)O [U24-6A] as the compound, how does the Kd [2] read?
Its Kd is 155 ± 12 µM.

And the Kd [1, 5]?
Its Kd is 35.7 µM.

And the Kd [1, 6]?
The Kd was 30.6 µM.

And the Kd [3]?
The Kd was 9.7 ± 0.2 µM.

And the Kd [4, 5]?
Its Kd is 6.9 µM.

And the Kd [4, 6]?
Its Kd is 6.1 µM.

And the Kd [4, 7]?
The Kd was 6.3 ± 0.3 µM.

For MTHETPPPSYNDVML [U24-7], which Kd [2] is on record?
The Kd was 87 ± 5 µM.

What about the Kd [1, 5] of the same compound?
Its Kd is 14.6 µM.

What about the Kd [1, 6] of the same compound?
Its Kd is 13.2 µM.

What about the Kd [1, 7] of the same compound?
The Kd was 21 ± 0.5 µM.

And the Kd [3]?
The Kd was 1.98 ± 0.04 µM.

How did the Kd [4, 7] turn out when “IKHEPENPPPYEEAM [Nogo-A, reference compound]” was run?
The Kd was 4 ± 0.2 µM.
